Results from PMC11641755, “Features of Highly Homologous T-Cell Receptor Repertoire in the Immune Response to Mutations in Immunogenic Epitopes” (International Journal of Molecular Sciences, 2024).

Experiments:
[1] = test system: NYN peptide-specific TCRs (NYN-1 to NYN-4 Jurkat E6-1 TPR cell lines); format: cell-based, human
TCR^NYN-I = settings: ref 20 (Deng et al.); cited from earlier work
TCR^NYN-II = settings: ref 20 (Deng et al.); cited from earlier work
[2] = test system: TCR NYN-4 (Jurkat E6-1 TPR cells); test: Jurkat E6-1 TPR NFAT-eGFP reporter activation, transgenic TCR NYN-4, peptide-loaded K562-A*24:02; format: cell-based, human
[3] = test system: TCR NYN-1 (Jurkat E6-1 TPR cells); format: cell-based, human
[4] = test system: TCR NYN-3 (Jurkat E6-1 TPR cells); format: cell-based, human
[5] = test system: TCR NYN-2 (Jurkat E6-1 TPR cells); format: cell-based, human

NYNYLYRLL [F456L]
effect of the mutation on the T-cell response / recognition (in words) [1]: did not affect the T-cell response

NYKYLYRLF [N450K]
recognition / response of TCR^NYN-I (in words) (TCR^NYN-I): remained preserved | recognition / response of TCR^NYN-II (in words) (TCR^NYN-II): remained preserved | reduction in the recognition compared to wild-type NYN ([2]; TCR NYN-4, from EC50 values): up to 400 fold | effect of the mutation on response / affinity of NYN-1 (in words) [3]: remained preserved

VYFLQSINF
GFP expression compared to NYN ([4]; NYN-3 cell line, K562 loaded with 0.8 μM peptide): 1.5 times lower | GFP expression compared to NYN ([2]; NYN-4 cell line, K562 loaded with 0.8 μM peptide): 1.5 times lower | GFP expression compared to NYN ([3]; NYN-1 cell line, K562 loaded with 0.8 μM peptide): the same level of GFP expression as NYN | recognition by all NYN-specific TCRs (cross-reactivity) ([1]; K562 loaded with 0.8 μM of each epitope): recognized | GFP expression compared to NYN ([5]; NYN-2 cell line, K562 loaded with 0.8 μM peptide): the same level of GFP expression as NYN

NYNYLYRFF [L455F]
effect of the mutation on the T-cell response / recognition (in words) [1]: did not affect the T-cell response | reduction in the recognition compared to wild-type NYN ([5]; TCR NYN-2, from EC50 values): 23 fold

NYNYMYRLF [L452M]
effect of the mutation on the T-cell response / recognition (in words) [1]: did not affect the T-cell response

NYDYLYRLF [N450D]
effect of the mutation on response / affinity of NYN-3 (in words) [4]: increased the affinity | effect of the mutation on the T-cell response / recognition (in words) [1]: did not affect the T-cell response | effect of the mutation on response / affinity of NYN-2 (in words) [5]: increased the affinity
